Laboratory results from PubChem BioAssay (NCI).
Where “and” joins values, the source holds several entries; their conditions need not be identical. Identical values can stand only once.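 Values below derive from 48-hour exposures of cells grown in 96-well plates, with endpoints linearly interpolated between the two concentrations bracketing the appropriate inhibition level. Abbreviation: GI50, concentration required for 50% inhibition of growth. The concentration for full growth arrest is given as TGI.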

Assays:
Assay in all cases: NCI-60 cell line screen, 48 h
786-0 renal = test system: 786-0 renal
A498 renal = test system: A498 renal
ACHN renal = test system: ACHN renal
BT-549 breast = test system: BT-549 breast
CAKI-1 renal = test system: CAKI-1 renal
CCRF-CEM leukemia = test system: CCRF-CEM leukemia
COLO 205 colon = test system: COLO 205 colon
DU-145 prostate = test system: DU-145 prostate
EKVX NSCLC = test system: EKVX NSCLC
HCC-2998 colon = test system: HCC-2998 colon
HCT-116 colon = test system: HCT-116 colon
HCT-15 colon = test system: HCT-15 colon
HL-60(TB) leukemia = test system: HL-60(TB) leukemia
HOP-62 NSCLC = test system: HOP-62 NSCLC
HS 578T breast = test system: HS 578T breast
HT29 colon = test system: HT29 colon
IGROV1 ovarian = test system: IGROV1 ovarian
K-562 leukemia = test system: K-562 leukemia
KM12 colon = test system: KM12 colon
M14 melanoma = test system: M14 melanoma
MALME-3M melanoma = test system: MALME-3M melanoma
MCF7 breast = test system: MCF7 breast
MDA-MB-231 breast = test system: MDA-MB-231 breast
MDA-N = test system: MDA-N
MOLT-4 leukemia = test system: MOLT-4 leukemia
NCI-H226 lung = test system: NCI-H226 lung
NCI-H23 lung = test system: NCI-H23 lung
NCI-H460 lung = test system: NCI-H460 lung
NCI-H522 lung = test system: NCI-H522 lung
NCI/ADR-RES ovarian = test system: NCI/ADR-RES ovarian
OVCAR-3 ovarian = test system: OVCAR-3 ovarian
OVCAR-4 ovarian = test system: OVCAR-4 ovarian
OVCAR-5 ovarian = test system: OVCAR-5 ovarian
OVCAR-8 ovarian = test system: OVCAR-8 ovarian
PC-3 prostate = test system: PC-3 prostate
RXF 393 renal = test system: RXF 393 renal
SF-268 CNS = test system: SF-268 CNS
SF-295 CNS = test system: SF-295 CNS
SF-539 CNS = test system: SF-539 CNS
SK-MEL-2 melanoma = test system: SK-MEL-2 melanoma
SK-MEL-28 melanoma = test system: SK-MEL-28 melanoma
SK-MEL-5 melanoma = test system: SK-MEL-5 melanoma
SK-OV-3 ovarian = test system: SK-OV-3 ovarian
SN12C renal = test system: SN12C renal
SNB-19 CNS = test system: SNB-19 CNS
SNB-75 CNS = test system: SNB-75 CNS
SR leukemia = test system: SR leukemia
SW-620 colon = test system: SW-620 colon
T-47D breast = test system: T-47D breast
TK-10 renal = test system: TK-10 renal
UACC-257 melanoma = test system: UACC-257 melanoma
UACC-62 melanoma = test system: UACC-62 melanoma
UO-31 renal = test system: UO-31 renal
A549 NSCLC = test system: A549 NSCLC
HOP-92 NSCLC = test system: HOP-92 NSCLC
LOX IMVI melanoma = test system: LOX IMVI melanoma
MDA-MB-435 = test system: MDA-MB-435
RPMI-8226 leukemia = test system: RPMI-8226 leukemia
U251 CNS = test system: U251 CNS

Molecule `Cc1ccc(C(=O)Nc2ccc(S(=O)(=O)O)c3cc(S(=O)(=O)O)cc(S(=O)(=O)O)c23)cc1N` has a TGI (786-0 renal) of over 100 µM, a TGI (A498 renal) of over 100 µM and a TGI (ACHN renal) of over 100 µM. For the same molecule, the TGI (BT-549 breast) was over 100 µM, the TGI (CAKI-1 renal) was over 100 µM and the TGI (CCRF-CEM leukemia) was over 100 µM. It also gave a TGI (COLO 205 colon) of over 100 µM, a TGI (DU-145 prostate) of over 100 µM and a TGI (EKVX NSCLC) of over 100 µM. The TGI (HCC-2998 colon) was over 100 µM, the TGI (HCT-116 colon) was over 100 µM and the TGI (HCT-15 colon) was over 100 µM. The TGI (HL-60(TB) leukemia) was over 100 µM, the TGI (HOP-62 NSCLC) was over 100 µM and the TGI (HS 578T breast) was over 100 µM. For the same molecule, the TGI (HT29 colon) was over 100 µM, the TGI (IGROV1 ovarian) was over 100 µM and the TGI (K-562 leukemia) was over 100 µM. The TGI (KM12 colon) was over 100 µM, the TGI (M14 melanoma) was over 100 µM and the TGI (MALME-3M melanoma) was over 100 µM. For the same molecule, the TGI (MCF7 breast) was over 100 µM, the TGI (MDA-MB-231 breast) was over 100 µM and the TGI (MDA-N) was over 100 µM. The TGI (MOLT-4 leukemia) was over 100 µM, the TGI (NCI-H226 lung) was over 100 µM and the TGI (NCI-H23 lung) was over 100 µM. The TGI (NCI-H460 lung) was over 100 µM, the TGI (NCI-H522 lung) was over 100 µM and the TGI (NCI/ADR-RES ovarian) was over 100 µM. It also gave a TGI (OVCAR-3 ovarian) of over 100 µM, a TGI (OVCAR-4 ovarian) of over 100 µM and a TGI (OVCAR-5 ovarian) of over 100 µM. For the same molecule, the TGI (OVCAR-8 ovarian) was over 100 µM, the TGI (PC-3 prostate) was over 100 µM and the TGI (RXF 393 renal) was over 100 µM. For the same molecule, the TGI (SF-268 CNS) was over 100 µM, the TGI (SF-295 CNS) was over 100 µM and the TGI (SF-539 CNS) was over 100 µM. For the same molecule, the TGI (SK-MEL-2 melanoma) was over 100 µM, the TGI (SK-MEL-28 melanoma) was over 100 µM and the TGI (SK-MEL-5 melanoma) was over 100 µM. For the same molecule, the TGI (SK-OV-3 ovarian) was over 100 µM, the TGI (SN12C renal) was over 100 µM and the TGI (SNB-19 CNS) was over 100 µM. The TGI (SNB-75 CNS) was over 100 µM, the TGI (SR leukemia) was over 100 µM and the TGI (SW-620 colon) was over 100 µM. It also gave a TGI (T-47D breast) of over 100 µM, a TGI (TK-10 renal) of over 100 µM and a TGI (UACC-257 melanoma) of over 100 µM. It also gave a TGI (UACC-62 melanoma) of over 100 µM and a TGI (UO-31 renal) of over 100 µM.

Molecule `Fc1cccc(C2SCC3=Nc4ccccc4CN32)c1` (stereo not drawn) has a TGI (786-0 renal) of over 100 µM, a TGI (A498 renal) of over 100 µM and a TGI (A549 NSCLC) of over 100 µM. The TGI (ACHN renal) was over 100 µM, the TGI (BT-549 breast) was over 100 µM and the TGI (CAKI-1 renal) was over 100 µM. For the same molecule, the TGI (CCRF-CEM leukemia) was over 100 µM, the TGI (COLO 205 colon) was over 100 µM and the TGI (DU-145 prostate) was over 100 µM. It also gave a TGI (EKVX NSCLC) of over 100 µM, a TGI (HCC-2998 colon) of over 100 µM and a TGI (HCT-116 colon) of 88.6 µM. For the same molecule, the TGI (HCT-15 colon) was over 100 µM, the TGI (HL-60(TB) leukemia) was over 100 µM and the TGI (HOP-62 NSCLC) was over 100 µM. It also gave a TGI (HOP-92 NSCLC) of over 100 µM, a TGI (HT29 colon) of 74.3 µM and a TGI (K-562 leukemia) of over 100 µM. The TGI (KM12 colon) was over 100 µM, the TGI (LOX IMVI melanoma) was over 100 µM and the TGI (M14 melanoma) was over 100 µM. It also gave a TGI (MCF7 breast) of over 100 µM, a TGI (MDA-MB-231 breast) of over 100 µM and a TGI (MDA-MB-435) of over 100 µM. The TGI (MDA-N) was over 100 µM, the TGI (MOLT-4 leukemia) was over 100 µM and the TGI (NCI-H23 lung) was over 100 µM. It also gave a TGI (NCI-H460 lung) of over 100 µM, a TGI (NCI/ADR-RES ovarian) of 35.9 µM and a TGI (OVCAR-3 ovarian) of 70.5 µM. For the same molecule, the TGI (OVCAR-4 ovarian) was over 100 µM, the TGI (OVCAR-5 ovarian) was over 100 µM and the TGI (OVCAR-8 ovarian) was over 100 µM. For the same molecule, the TGI (PC-3 prostate) was over 100 µM, the TGI (RPMI-8226 leukemia) was over 100 µM and the TGI (RXF 393 renal) was over 100 µM. For the same molecule, the TGI (SF-268 CNS) was over 100 µM, the TGI (SF-295 CNS) was over 100 µM and the TGI (SF-539 CNS) was over 100 µM. The TGI (SK-MEL-2 melanoma) was 49.7 µM, the TGI (SK-MEL-28 melanoma) was over 100 µM and the TGI (SK-MEL-5 melanoma) was 41.1 µM. It also gave a TGI (SK-OV-3 ovarian) of over 100 µM, a TGI (SN12C renal) of over 100 µM and a TGI (SNB-19 CNS) of over 100 µM. The TGI (SNB-75 CNS) was over 100 µM, the TGI (SR leukemia) was over 100 µM and the TGI (SW-620 colon) was over 100 µM. For the same molecule, the TGI (T-47D breast) was over 100 µM, the TGI (TK-10 renal) was over 100 µM and the TGI (U251 CNS) was over 100 µM. For the same molecule, the TGI (UACC-257 melanoma) was over 100 µM, the TGI (UACC-62 melanoma) was over 100 µM and the TGI (UO-31 renal) was over 100 µM.

With `CCOP(=O)(O)CC1OC(CO)C(O)C1O` (stereo not drawn) the TGI (786-0 renal) was over 100 µM, the TGI (A549 NSCLC) was over 100 µM and the TGI (ACHN renal) was over 100 µM. It also gave a TGI (BT-549 breast) of over 100 µM, a TGI (CCRF-CEM leukemia) of over 100 µM and a TGI (COLO 205 colon) of over 100 µM. It also gave a TGI (DU-145 prostate) of over 100 µM, a TGI (EKVX NSCLC) of over 100 µM and a TGI (HCT-116 colon) of over 100 µM. For the same molecule, the TGI (HCT-15 colon) was over 100 µM, the GI50 (HL-60(TB) leukemia) was 30.1 µM and > 100 µM and the TGI (HL-60(TB) leukemia) was over 100 µM. For the same molecule, the TGI (HOP-62 NSCLC) was over 100 µM, the TGI (HOP-92 NSCLC) was over 100 µM and the TGI (HS 578T breast) was over 100 µM. The TGI (HT29 colon) was over 100 µM, the TGI (IGROV1 ovarian) was over 100 µM and the TGI (K-562 leukemia) was over 100 µM. For the same molecule, the TGI (LOX IMVI melanoma) was over 100 µM, the TGI (M14 melanoma) was over 100 µM and the TGI (MALME-3M melanoma) was over 100 µM. The TGI (MDA-MB-231 breast) was over 100 µM, the TGI (MDA-N) was over 100 µM and the TGI (MOLT-4 leukemia) was over 100 µM. The TGI (NCI-H226 lung) was over 100 µM, the TGI (NCI-H23 lung) was over 100 µM and the TGI (NCI-H460 lung) was over 100 µM. It also gave a TGI (NCI-H522 lung) of over 100 µM, a TGI (NCI/ADR-RES ovarian) of over 100 µM and a TGI (OVCAR-3 ovarian) of over 100 µM. For the same molecule, the TGI (OVCAR-5 ovarian) was over 100 µM, the TGI (OVCAR-8 ovarian) was over 100 µM and the TGI (PC-3 prostate) was over 100 µM. It also gave a TGI (RXF 393 renal) of over 100 µM, a TGI (SF-268 CNS) of over 100 µM and a TGI (SF-295 CNS) of over 100 µM. It also gave a TGI (SF-539 CNS) of over 100 µM, a TGI (SK-MEL-2 melanoma) of over 100 µM and a TGI (SK-MEL-28 melanoma) of over 100 µM. For the same molecule, the TGI (SK-MEL-5 melanoma) was over 100 µM, the TGI (SK-OV-3 ovarian) was over 100 µM and the TGI (SN12C renal) was over 100 µM. It also gave a TGI (SNB-19 CNS) of over 100 µM, a TGI (SNB-75 CNS) of over 100 µM and a TGI (SW-620 colon) of over 100 µM. For the same molecule, the TGI (T-47D breast) was over 100 µM, the TGI (TK-10 renal) was over 100 µM and the TGI (U251 CNS) was over 100 µM. The TGI (UACC-257 melanoma) was over 100 µM, the TGI (UACC-62 melanoma) was over 100 µM and the TGI (UO-31 renal) was over 100 µM.
